# Reference: patent US10273290B2, “Hydrocarbon double-stapled stabilized HIV-1 GP41 heptad repeat domain peptides” (DANA-FARBER CANCER INSTITUTE, INC., priority 2009, dated 2019)
# Bridge positions count the residues as written; N and C are the ends. Square brackets hold non-standard residues; d marks the D form. Ends that are not written are not given here. Peptide text beside a SMILES is read from it. * marks the point of attachment. FITC = O=C1OC2(c3ccc(O)cc3Oc3cc(O)ccc32)c2ccc(NC(=S)*)cc21; S5 = C=CCCC[C@](C)(N)C(=O)O; Nle = CCCC[C@H](N)C(=O)O
# Experiments:
# [1] = biological target: T1, chymotrypsin (Bos taurus, UniProt P00766); assay: Protease resistance assay, chymotrypsin (LC/MS); assay type: in vitro ADME; conditions: pH 7.4, 0.5 chymotrypsin, peptide 25 μM
# T1 construct: purchased Sigma
# Method: The DAD signal was set to 280 nm with an 8 nm bandwidth and MSD set to scan mode with one channel at (M+2H)/2, +1 mass units and the other at (M+3H)/3, +1 mass units. Integration of each MSD signal yielded areas under the curve of >10^8 counts. Reaction samples were composed of 5 μL peptide in DMSO (1 mM stock) and 195 μL of buffer consisting of 50 mM phosphate buffer pH 7.4 containing 2 mM CaCl2. Upon injection of the 0 hr time point sample, 2 μL of 50 ng/μL chymotrypsin (Sigma) was added and the amount of intact peptide quantitated by serial injection over time. An internal control of acetylated tryptophan carboxamide at a concentration of 100 μM was used to normalize each MSD data point. A plot of MSD area versus time yielded an exponential decay curve and half-lives were determined by nonlinear regression analysis using Prism software (GraphPad).
# [2] = Circular dichroism, α-helical content; assay type: physicochemical
# Method: The α-helicity of stapled modified polypeptides was compared to their unmodified counterparts by circular dichroism. CD spectra were obtained on an Aviv spectropolarimeter at 20° C. using the following standard measurement parameters: wavelength, 190-260 nm; step resolution, 0.5 nm; speed, 20 nm/sec; accumulations, 10; response, 1 sec; bandwidth, 1 nm; path length, 0.1 cm. The α-helical content of each peptide was calculated by dividing the mean residue ellipticity [θ]222obs, by the reported [θ]222obs for a model helical peptide (Forood, B., E. J. Feliciano, and K. P. Nambiar, PNAS, 1993. 90(3): p. 838-842; J. Martin Scholtz, Biopolymers, 1991. 31(13): p. 1463-1470; Lawless, M. K., et al., Biochemistry, 1996. 35(42): p. 13697-13708) or using, for example, the Aviv machine using CDNN software developed by Brohm in order to deduce five different secondary structure fractions (helix, parallel and antiparallel beta-sheet, beta-turn and random coil). Protein Engineering, 1992. 5(3); p. 191-195
# In order to evaluate secondary structure improvements of hydrocarbon-stapled peptides, we record and analyze circular dichroism (CD) spectra on an Aviv Biomedical spectrometer (model 410), as described above. […] The CD spectra are initially plotted as wavelength versus millidegree. […] After conversion to mean residue ellipticity, percent α-helicity can be calculated using the equation, % helicity=100×[θ]222/^max[θ]222, where ^max[θ]222=−40,000×[1−(2.5/number of amino acid residues)]. We also employ the curve-fitting CDDN software that is bundled with our spectrometer to calculate the relative fractions of secondary structure including α-helix, parallel and antiparallel β-sheet, β-turn and random coil.
# [3] = Chymotrypsin, pH 7
# From the text: Table printed on a drawing sheet, FIG. 17D
# Title: Chymotrypsin, pH 7
# First reader's note: The table also serves as the legend of the plot below it (fraction intact over time); the plot symbols before the compound names are left out.
# [4] = test system: doubly-mutant HR1 peptides V38A/N42T and V38E/N42S; assay: Native PAGE complex assembly with mutant HR1 peptides; assay type: binding, HIV-1; conditions: for higher-order complex formation with doubly-mutant HR1 peptides: FITC-labeled peptides, native PAGE
# From the text: We first performed a native PAGE-based assay designed to monitor the capacity of FITC-HR2 and mutant HR1 peptides to interact to form a stable higher-order complex (He, Y., et al. PNAS (2008)).
# [5] = test system: pepsin; assay: Protease resistance assay, pepsin at pH 2; conditions: pepsin at 0.5 ng/μL, peptide 25 μM, acidic conditions
# Method: The DAD signal was set to 280 nm with an 8 nm bandwidth and MSD set to scan mode with one channel at (M+2H)/2, +1 mass units and the other at (M+3H)/3, +1 mass units. […] Reaction samples were composed of 5 μL peptide in DMSO (1 mM stock) and 195 μL of buffer consisting of 50 mM phosphate buffer pH 7.4 containing 2 mM CaCl2. Upon injection of the 0 hr time point sample, 2 μL of 50 ng/μL chymotrypsin (Sigma) was added and the amount of intact peptide quantitated by serial injection over time. An internal control of acetylated tryptophan carboxamide at a concentration of 100 μM was used to normalize each MSD data point. A plot of MSD area versus time yielded an exponential decay curve and half-lives were determined by nonlinear regression analysis using Prism software (GraphPad). The assay was also performed using trypsin and pepsin in their appropriate buffer conditions.
molecule,measurement,setting,value
"CCCC[C@H](NC(C)=O)C(=O)N[C@H](C(=O)N[C@@H](Cc1c[nH]c2ccccc12)C(=O)N[C@@H](CCCC)C(=O)N[C@@H](CCC(=O)O)C(=O)N[C@@H](Cc1c[nH]c2ccccc12)C(=O)N[C@@H](CC(=O)O)C(=O)N[C@@H](CCCNC(=N)N)C(=O)N[C@@H](CCC(=O)O)C(=O)N[C@H](C(=O)N[C@@]1(C)CCCC=CCCC[C@@](C)(C(=O)N[C@@H](CC(C)C)C(=O)N[C@H](C(=O)N[C@@H](Cc2c[nH]cn2)C(=O)N[C@@H](CO)C(=O)N[C@@H](CC(C)C)C(=O)N[C@H](C(=O)N[C@@H](CCC(=O)O)C(=O)N[C@@H](CCC(=O)O)C(=O)N[C@@H](CO)C(=O)N[C@@H](CCC(N)=O)C(=O)N[C@@H](CC(N)=O)C(=O)N[C@@H](CCC(N)=O)C(=O)N[C@@]2(C)CCCC=CCCC[C@@](C)(C(=O)N[C@@H](CCC(N)=O)C(=O)N[C@@H](CCC(=O)O)C(=O)N[C@@H](CC(C)C)C(=O)N[C@@H](CC(C)C)C(=O)N[C@@H](CCC(=O)O)C(N)=O)NC(=O)[C@H](CC(N)=O)NC(=O)[C@H](CCCCN)NC(=O)[C@H](CCC(=O)O)NC2=O)[C@@H](C)CC)[C@@H](C)CC)NC(=O)[C@H]([C@@H](C)O)NC(=O)[C@H](Cc2ccc(O)cc2)NC(=O)[C@H](CC(N)=O)NC1=O)[C@@H](C)CC)[C@@H](C)O [SAH-gp41(626-662)(C, F)] (Ac-[Nle]TW[Nle]EWDREI[S5]NYT[S5]LIHSLIEESQNQ[S5]EKN[S5]QELLE-NH2; staple 11-15, 28-32)",Half-Life,[1],494 min
same,% helicity at pH 2,[2],55%
same,% helicity at pH 7,[2],41%
"CCCC[C@H](NC(C)=O)C(=O)N[C@H](C(=O)N[C@@H](Cc1c[nH]c2ccccc12)C(=O)N[C@@H](CCCC)C(=O)N[C@@H](CCC(=O)O)C(=O)N[C@@H](Cc1c[nH]c2ccccc12)C(=O)N[C@@H](CC(=O)O)C(=O)N[C@@H](CCCNC(=N)N)C(=O)N[C@@H](CCC(=O)O)C(=O)N[C@H](C(=O)N[C@@H](CC(N)=O)C(=O)N[C@@H](CC(N)=O)C(=O)N[C@@H](Cc1ccc(O)cc1)C(=O)N[C@H](C(=O)N[C@@]1(C)CCCC=CCCC[C@@](C)(C(=O)N[C@@H](CC(C)C)C(=O)N[C@H](C(=O)N[C@@H](CCC(=O)O)C(=O)N[C@@H](CCC(=O)O)C(=O)N[C@@H](CO)C(=O)N[C@@H](CCC(N)=O)C(=O)N[C@@H](CC(N)=O)C(=O)N[C@@H](CCC(N)=O)C(=O)N[C@@]2(C)CCCC=CCCC[C@@](C)(C(=O)N[C@@H](CCC(N)=O)C(=O)N[C@@H](CCC(=O)O)C(=O)N[C@@H](CC(C)C)C(=O)N[C@@H](CC(C)C)C(=O)N[C@@H](CCC(=O)O)C(N)=O)NC(=O)[C@H](CC(N)=O)NC(=O)[C@H](CCCCN)NC(=O)[C@H](CCC(=O)O)NC2=O)[C@@H](C)CC)NC(=O)[C@H](Cc2c[nH]cn2)NC(=O)[C@H]([C@@H](C)CC)NC(=O)[C@H](CC(C)C)NC1=O)[C@@H](C)O)[C@@H](C)CC)[C@@H](C)O [SAH-gp41(626-662)(D, F)] (Ac-[Nle]TW[Nle]EWDREINNYT[S5]LIH[S5]LIEESQNQ[S5]EKN[S5]QELLE-NH2; staple 15-19, 28-32)",Half-Life,[1],181 min
Enfuvirtide,Half-Life,[3],12 min
"FITC-SAH-gp41(626-662)(A, F): FITC-labeled doubly stapled SAH-gp41(626-662)(A, F) ({FITC}-LTWAEWDAEINNYTSLIHSLIEESQNQAEKNAQELLE; not fully specified (bridges); also: doubly stapled, positions not given here)",higher-order complex formation with doubly-mutant HR1 peptides,[4],formed a higher-order complex
same,fold enhancement in binding activity,"[4]; compared to FITC-T649v, densitometric analyses",up to 2 fold
FITC-T649v: FITC-labeled T649v ({FITC}-LTWLEWDREINNYTSLIHSLIEESQNQQEKNEQELLE) [reference compound],higher-order complex formation with doubly-mutant HR1 peptides,[4],formed a higher-order complex
FITC-labeled enfuvirtide: FITC-labeled enfuvirtide [reference compound],higher-order complex formation with doubly-mutant HR1 peptides,[4],no interactions
enfuvirtide [listing 1 of 5 here],Half-Life,[3],25 min
same,"Half-life (minutes), pepsin",[5],3 min
same,% helicity at pH 2,[2],79%
same,% helicity at pH 7,[2],23%
enfuvirtide [listing 2 of 5 here],% helicity at pH 2,[2],57%
same,% helicity at pH 7,[2],30%
enfuvirtide [listing 3 of 5 here],"Half-life (minutes), pepsin",[5],920 min
enfuvirtide [listing 4 of 5 here],Half-Life,[3],100 min
same,"Half-life (minutes), pepsin",[5],227 min
same,% helicity at pH 2,[2],61%
same,% helicity at pH 7,[2],48%
enfuvirtide [listing 5 of 5 here],% helicity at pH 2,[2],66%
same,% helicity at pH 7,[2],26%
"unstapled counterpart: unstapled 20-mer truncation of T649v, residues 626-645 ([Nle]TW[Nle]EWDREINNYTSLIHSL) [reference compound]",α-helical content,"[2]; comparative CD spectra, 20-mer residues 626-645",20%
